Data on one molecule can be found in patent publication US7923243B2, “Stress-responsive induction of a therapeutic agent and methods of use” (University of Southern California, priority 1999, dated 2011).

The subject of this experiment is B/C10ME fibrosarcoma. Briefly: Tumor formation and GCV treatment, B/C10ME fibrosarcoma in BALB/c mice. The format is in vivo. As to conditions: 2×10^7 cells s.c.; GCV 100 mg/kg daily from day 21, tumor diameter about 2 cm. On the procedure: Tumor Formation. Confluent cultures of B/C10ME clones were harvested with trypsin-EDTA (Gibco/BRL) and washed three times in PBS. Approximately 2×10^7 viable cells were resuspended in […] of PBS. Six- to eight-week-old BALB/c mice obtained from Jackson Laboratory were subcutaneously injected with an 18-gauge needle in their right flank. Tumors were palpable within 12 days of inoculation and bi-perpendicular measurements were taken of the progressively growing tumor daily. Tumor growth was monitored by measurement of the larger and smaller diameters. At the indicated times post-injection, mice were injected with GCV daily at a dosage of 100 mg/kg of body weight for about 10 days. Tumors were judged to have regressed after losing both measurability and palpability. For each retroviral construct, multiple injections of 2 to 3 independently derived transduced clonal cell lines were performed.
Complete Eradication of Tumors in G1NaGrpTk Transduced Cells. To directly compare the therapeutic efficacy of the G1NaGrpTk vector with G1TkSvNa, B/C10ME clones transduced with the respective retroviral constructs were injected subcutaneously at a dose of 2×10^7 cells per BALB/c mouse. As controls, the parental, non-transduced cells were also injected. Tumors were palpable after 12 days of injection. At day 21, when the average tumor diameter reached about 2 cm, GCV was administered. […]

In the case of `Nc1nc(O)c2ncn(COC(CO)CO)c2n1` [GCV, ganciclovir], the “tumor growth following GCV treatment” value is given as “tumors continued to grow at various rates”.
